Read-outs that look alike come from different tables or passages of the source.
Experiments:
[1] = Pharmacokinetics in monkey (IV and PO); assay type: in vivo; conditions: for AUC: monkey; for MRT last: read-out: MRT0-last
[2] = Whole body plethysmography (respiratory depression); assay type: in vivo, mice
Excerpt: Third, plethysmography is used to examine whether SBI-553 and IND ready analog SBI-810 can be administered to mice intraperitoneally, intravenously, or intrathecally without respiratory depression. Using plethysmography determine whether SBI-553 and IND ready analog SBI-810 can be administered to mice (e.g., C57BL6J) intraperitonially, intravenously, or intrathecally without respiratory depression. […] The “Buxco FinePointe Whole Body Plethysmography 4-Site System” was used to assess whether any IND analogs like the SBI-810 in the same system following intraperitoneal, intravenous, or intrathecal administration. Here. C57BL6J mice are assessed using UWBP, a technique that provides a, non-invasive, quantitative means to assess and analyze respiratory parameters. This will include tidal volume, minute volume, inspiratory duty cycle, inspiratory flow rate and the ratio of inspiration time to expiration time using a repeated measures approach to determine lung function on the same animal under multiple treatment conditions.

NTSR2 = molecular target: T1, NTSR2 (Homo sapiens, UniProt O95665); test: Cellular assay of β-arrestin-2 translocation in cells expressing NTSR2; assay type: cell-based
T1 construct: expressed in transfected cells; host or cells: HEK293 cells
Description: (§1) First, using cellular assays, whether IND candidates such as SBI-810 are similar or better than SBI-553 as β-arrestin biased agonist at NTSR1. is assessed. The chemical entities used in this work were synthesized and validated. However, routine validation of the profile of these compounds is performed routinely using both cellular and in vivo assays. For example, HEK293 cells that express either the NTSR1 or NTSR2 are used to assess the functional profile of the various chemical probes. In addition, a series of genetically engineered mouse lines are used to provide an in vivo validation of novel chemical entities for their abilities to module behaviors in these animals.
(§2) Fourth, cellular assays are used to establish that IND ready analogs like SBI-810 are still selective for the NTSR1 rather than NTSR2. The specificity of the lead compounds toward NTSR1. NTSR2. and β-arrestin-2 are tested in respective cellular assays. More specifically, cells expressing either NTSR1 or NTSR2 are used to assess the function of various compound. […] This translocation is not observed in cells expressing NTSR2.
(§3) Fourth, genetically engineered mice are used to assess the effects and mechanisms of novel ligands. The specificity of the lead compounds toward NTSR1, NTSR2, and β-arrestin-2 dependent signaling is examined. […]

[3] = mouse, in vivo; cited from earlier work
[4] = Rotarod test of motor function; conditions: i.t. injection
NTSR1 [5] = molecular target: T2, NTSR1 (Homo sapiens, UniProt P30989); test: [3H]SBI-553 saturation binding to NTSR1-containing HEK293T cell membranes; set-up: expressed in transfected cells; host or cells: HEK293T cell membranes; conditions: below 400 nM
NTSR1 [6] = molecular target: T2, NTSR1; test: [3H]NTS saturation binding to NTSR1-containing HEK293T cell membranes in absence and presence of SBI-553; set-up: expressed in transfected cells; host or cells: HEK293T cell membranes
Excerpt: FIG. 4A-FIG. 4D show SBI-553 activates NTSR1 to stimulate β-arrestin-associated cellular responses.
(§4) Preliminary studies provided significant data for this example. SBI-553 was derived from a medicinal chemistry campaign to improve the ML314 probe series and was selected for potency, pharmacokinetic profile, and selectivity for NTSR1 over the NTSR2 (Pinkerton A B, et al. (2019) J Med Chem. 62(17):8357-8363, which is incorporated by reference for its teachings of the making of SBI-553). […] Binding specificity to NTSR1 was further confirmed by comparing membranes containing an off-target receptor (i.e., b2-adrenergic receptor) (Slosky L M, et al. (2020) Cell. 181(6):1364-1379e14). […] These findings indicate that SBI-553 is a β-arrestin-biased ligand that stimulates β-arrestin-mediated processes at NTSR1 […] without activating Gq protein signaling (FIG. 5).

NTSR1 [7] = molecular target: T2, NTSR1; test: Gq protein activation / intracellular Ca++ (FIG. 5A); assay type: cell-based; set-up: expressed in transfected cells; host or cells: HEK293T cell membranes; conditions: unlike NT
Excerpt: as §4

NTSR1 [8] = molecular target: T2, NTSR1; test: Cellular assay of β-arrestin-2 translocation in cells expressing NTSR1; assay type: cell-based; set-up: expressed in transfected cells; host or cells: HEK293T cell membranes
Description: as §1, §2, §3

T2 sequence (P30989 whole entry): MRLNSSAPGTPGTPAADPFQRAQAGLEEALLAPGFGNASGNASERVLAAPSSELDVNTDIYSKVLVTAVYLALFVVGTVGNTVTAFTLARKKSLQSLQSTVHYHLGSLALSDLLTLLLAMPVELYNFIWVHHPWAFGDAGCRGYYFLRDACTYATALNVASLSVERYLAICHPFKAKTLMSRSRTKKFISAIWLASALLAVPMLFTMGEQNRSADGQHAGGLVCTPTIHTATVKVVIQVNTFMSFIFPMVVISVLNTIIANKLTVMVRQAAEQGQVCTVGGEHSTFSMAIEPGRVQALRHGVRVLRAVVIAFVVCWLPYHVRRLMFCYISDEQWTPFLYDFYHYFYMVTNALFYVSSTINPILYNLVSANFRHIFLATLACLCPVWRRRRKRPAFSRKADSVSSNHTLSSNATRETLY
T1 sequence (O95665 whole entry, species assumed): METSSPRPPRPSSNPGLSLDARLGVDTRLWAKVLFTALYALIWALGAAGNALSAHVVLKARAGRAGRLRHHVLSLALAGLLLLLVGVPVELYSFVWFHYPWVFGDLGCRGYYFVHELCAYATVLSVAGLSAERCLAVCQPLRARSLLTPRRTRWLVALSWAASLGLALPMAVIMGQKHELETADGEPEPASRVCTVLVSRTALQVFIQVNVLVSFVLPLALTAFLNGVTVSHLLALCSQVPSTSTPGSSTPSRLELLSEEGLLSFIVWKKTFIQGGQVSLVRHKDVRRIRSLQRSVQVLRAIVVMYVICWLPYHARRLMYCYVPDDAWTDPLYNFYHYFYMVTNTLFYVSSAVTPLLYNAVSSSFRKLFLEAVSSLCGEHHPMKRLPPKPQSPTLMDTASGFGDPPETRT

Co ([1]; Monkey, IV 5 mg/kg): 4572 ng/mL
T2/2 ([1]; Monkey, IV 5 mg/kg): 4.78 h
CI ([1]; Monkey, PO 20 mg/kg): 8 mL/min/kg
Co ([1]; Monkey, PO 20 mg/kg): 67.6 ng/mL
Levels in plasma ([1]; following i.v. and p.o. dosing): good levels in plasma
AUC ([1]; plasma, iv, 5 mg/kg, Monkey, IV 5 mg/kg, read-out: AUCo-inf): 4340 ng·h/mL
AUC ([1]; plasma, iv, 5 mg/kg, Monkey, IV 5 mg/kg, read-out: AUCo-last): 4280 ng·h/mL
AUC ([1]; plasma, po, 20 mg/kg, Monkey, PO 20 mg/kg, read-out: AUCo-inf): 864 ng·h/mL
AUC ([1]; plasma, po, 20 mg/kg, Monkey, PO 20 mg/kg, read-out: AUCo-last): 797 ng·h/mL
clearance ([1]; plasma, Monkey, IV 5 mg/kg): 19.2 mL/min/kg
MRT last ([1]; plasma, Monkey, IV 5 mg/kg): 2.3 h
Vd ([1]; plasma, Monkey, IV 5 mg/kg, read-out: Vdss): 3.1 L/kg
half-life ([1]; plasma, Monkey, PO 20 mg/kg): 8 h
MRT last ([1]; plasma, Monkey, PO 20 mg/kg): 11.9 h
Breathing frequency or tidal volume ([2]; on its own): had no effect
Reduction in breathing frequency or tidal volume produced by morphine ([2]; with morphine): did not exacerbate
Translocation of β-arrestin-2 to intracellular compartments (NTSR2): not observed
Specific [3H]SBI-553 binding as share of total binding (NTSR1 [5]): ~50%
Effect on total [3H]NTS binding (NTSR1 [6]): increased
Increase of NTS affinity for NTSR1 (Kd) (NTSR1 [6]; dose-dependent): up to 3.9 fold
Increase of number of available [3H]NTS binding sites (Bmax) (NTSR1 [6]; dose-dependent): up to 3.3 fold
Activation of G protein Gq / intracellular Ca++ (NTSR1 [7]): cannot activate the G protein Gq
Compound: COc1ccccc1C1CCN(c2nc(C3(F)CC3)nc3ccc(N(C)CCO)cc23)CC1 [SBI-553]
Methamphetamine conditioned place preference [3]: reduced
Rotarod testing versus vehicle [4]: no significant difference
Translocation of β-arrestin-2 to intracellular compartments (NTSR1 [8]): demonstrate translocation of β-arrestin-2

From patent US20240398806A1, “Compositions For and Methods of Treating and/or Preventing Pain” (Duke University, priority 2021, published 2024)
